According to patent US20050282841A1 (priority 2004, published 2005):

Experiments:
Type in all cases: in vivo
Settings in all cases: on tomatoes, wheat and vine crops
[1] = tested on: Late blight (Phytophthora infestans)
[2] = tested on: Powdery mildew (Erisyphe araminis); experiment: fungicidal effectiveness against Powdery mildew
[3] = tested on: Brown rust (Puccinia recondita); experiment: fungicidal effectiveness against Brown rust
[4] = tested on: Septoria leaf spot (Septoria tritici); experiment: fungicidal effectiveness against Septoria leaf spot

CO/N=C(/C(=O)OC(Cn1cncn1)(c1ccc(Cl)cc1)C(C)C1CC1)c1ccccc1COc1ccccc1C (racemic) [Example 2, (2RS,3RS;2RS,3SR)-2-(4-chlorophenyl)-3-cyclopropyl-1-(1H-1,2,4-triazol-1-yl)butan-2-yl (E)-methoxyimino[α-(o-tolyloxy)-o-tolyl]acetate]
effective: effectiveness against fungal pathogen Late blight (Phytophthora infestans) [1] | effectiveness against fungal pathogen Powdery mildew (Erisyphe araminis) [2] | effectiveness against fungal pathogen Brown rust (Puccinia recondita) [3] | effectiveness against fungal pathogen Septoria leaf spot (Septoria tritici) [4]

CO/N=C(/C(=O)OC(CCc1ccc(Cl)cc1)(Cn1cncn1)C(C)(C)C)c1ccccc1CO/N=C(\C)c1cccc(C(F)(F)F)c1 (racemic) [Example 3, (RS)-1-p-chlorophenyl-4,4-dimethyl-3-(1H-1,2,4-triazol-1-ylmethyl)pentan-3-yl (E)-methoxyimino-{(E)-α-[1-(α,α,α-trifluoro-m-tolyl)ethylideneaminooxy]-o-tolyl}acetate]
effective: effectiveness against fungal pathogen Late blight (Phytophthora infestans) [1] | effectiveness against fungal pathogen Powdery mildew (Erisyphe araminis) [2] | effectiveness against fungal pathogen Brown rust (Puccinia recondita) [3] | effectiveness against fungal pathogen Septoria leaf spot (Septoria tritici) [4]

CO/C=C(/C(=O)OC(c1ccccc1)(c1cncnc1)c1ccc(Cl)cc1Cl)c1ccccc1Oc1cc(Oc2ccccc2C#N)ncn1 (racemic) [Example 1, (RS)-2,4-dichloro-α-(pyrimidin-5-yl)benzhydryl (E)-2-{2-[6-(2-cyanophenoxy)pyrimidin-4-yloxy]phenyl}-3-methoxyacrylate]
effective: effectiveness against fungal pathogen Late blight (Phytophthora infestans) [1] | effectiveness against fungal pathogen Powdery mildew (Erisyphe araminis) [2] | effectiveness against fungal pathogen Brown rust (Puccinia recondita) [3] | effectiveness against fungal pathogen Septoria leaf spot (Septoria tritici) [4]
